Assay results from article PMC6008299, “Impact of race on dose selection of molecular-targeted agents in early-phase oncology trials” (British Journal of Cancer, 2018).

Experiments:
Akt phosphorylation = experiment: Pharmacodynamics: Akt phosphorylation in platelet-rich plasma; assay type: in vivo, human; settings: pre-treatment vs post-treatment, 32 patients
Protocol: (§1) In both studies, the PK profile of DS-7423 was characterised during cycle 1 on days 1 and 8. For PD analysis, glucose, C-peptide, and Akt phosphorylation were measured in platelet-rich plasma collected at predose, 1, 2, 4, 6, and 24 h after dosing on days 1 and 15. Tumour assessment was performed every two cycles using Response Evaluation Criteria in Solid Tumours (RECIST) version 1.1 in both studies. 18F-Fluoro-2-deoxy-D-glucose positron emission tomography ([18F]-FDG) was performed as an exploratory endpoint at baseline and on day 4.[10]

[1] = Pharmacokinetics in Japanese cohort (J102); assay type: in vivo, human
Protocol: as §1
The data cut-off for the primary analysis occurred after all patients had either discontinued the study or completed 6 months of study drug treatment. Descriptive statistics were provided for selected demographic, safety, PK, and PD data by dose and time as appropriate. Descriptive statistics on continuous data included means, medians, standard deviations, and ranges, while categorical data were summarised using frequency counts and percentages. No inferential analysis to compare dose levels was performed due to limited sample sizes. The WinNonlin software was used for PK analysis.

glucose = experiment: Pharmacodynamics: glucose after dosing; assay type: in vivo, human; settings: decreased toward baseline at 24 h
Protocol: as §1

[2] = system: CYP2C8, CYP3A4, and CYP3A5; design: method as in printed; settings: stated in discussion, ref not given; cited from earlier work
[3] = system: patients with advanced, refractory solid tumours; experiment: US and Japanese phase I studies combined: safety; assay type: in vivo, human
Protocol: We conducted two independent, prospective, first-in-human phase I studies of DS-7423, a dual PI3K/mTOR inhibitor, in patients with advanced, refractory solid tumours in the US (U101 study) and Japan (J102 study); age ≥18 years in the US and ≥20 years in Japan; and Eastern Cooperative Oncology Group performance status (ECOG PS) 0–1. Key exclusion criteria included fasting glucose >126 mg/dL (>7 mmol/L); HbA1c >7.0% for the US and HbA1c >6.5% for Japan; history of diabetes mellitus (type I or II); concomitant use of chronic systemic corticosteroids, or prior toxicities from a dual PI3K/mTOR inhibitor (Supplementary Table 1). Studies were approved by the Institutional Review Board at the participating institutions and regulatory authorities. Written informed consent in English and Japanese was obtained from all patients prior to enrollment. The study followed the Declaration of Helsinki and good clinical practice guidelines and was registered with ClinicalTrials.gov (NCT01364844) and with ClinicalTrials.jp (Japic CTI, 12766).
The primary objective was to assess the safety and tolerability to determine the MTD and RP2D of DS-7423 in US and Japanese patients. Secondary and exploratory objectives were to evaluate PK, tumour response, and PD effects. Treatment-emergent adverse events (TEAE) were graded using the Common Terminology Criteria for Adverse Events version 4.0. A dose-limiting toxicity (DLT) was defined as a grade ≥3 clinically significant toxicity, with the exceptions of grade ≥4 anaemia and prolonged grade 3 neutropenia. Both studies were open-label, phase I dose-escalation studies. In Japan, the study was conducted at a single centre, while the US study was conducted at three sites. In Japan, dose escalation of DS-7423 was guided by the modified continuous reassessment method (mCRM) using a Bayesian logistic regression model following the escalation with overdose control (EWOC) principle at a starting dose of 4 mg once daily.[9] In the US, an accelerated titration design was used at low doses followed by a mCRM with EWOC. Briefly, the dose was escalated based on safety data in a single patient until a grade 2 or higher toxicity was observed during cycle 1 or the DLT period (days 1–28). In both studies, DS-7423 was administered orally once daily until patients experienced unacceptable treatment-related toxicity or disease progression. Prophylactic granulocyte colony-stimulating factor and antiemetics were not permitted during cycle 1.

advanced solid tumours = experiment: Tumour assessment RECIST 1.1, US study; assay type: in vivo, human; settings: of 27 patients
Protocol: as §1

[4] = dose level 4, Japanese cohort (n = 3)
[5] = dose level 8, Japanese cohort (n = 3)
[6] = dose level 16, Japanese cohort (n = 2)
[7] = dose level 160, Japanese cohort (n = 3)
[8] = dose level 240, Japanese cohort (n = 5)

## CC(=O)N1CCN(c2nc3c(N4CCOCC4)nc(-c4cnc(N)nc4)nc3n2CC(F)(F)F)C[C@H]1C [DS-7423]
Akt phosphorylation
  Akt phosphorylation in platelet-rich plasma: inhibited compared with that at baseline
[1]; [4]
  Mean AUCtau: 31.1 ng·h/mL
  Mean Cmax: 3 ng/mL
  T1/2: 6 to 7 h
  Tmax: 2 to 4 h
[1]; [5]
  Mean AUCtau: 84.2 ng·h/mL
  Mean Cmax: 10 ng/mL
  T1/2: 6 to 7 h
  Tmax: 2 to 4 h
[1]; [6]
  Mean AUCtau: 178 ng·h/mL
  Mean Cmax: 18 ng/mL
  T1/2: 6 to 7 h
  Tmax: 2 to 4 h
[1]; [7]
  Mean AUCtau: 1223.3 ng·h/mL
  Mean Cmax: 61 ng/mL
  T1/2: 6 to 7 h
  Tmax: 2 to 4 h
[1]; [8]
  Mean AUCtau: 1184.8 ng·h/mL
  Mean Cmax: 83.6 ng/mL
  T1/2: 12 h
  Tmax: 2 to 4 h
glucose
  Hyperglycaemia (on-target effect): observed as early as 4 h after dosing
[2]
  Involvement of CYP2C8, CYP3A4, and CYP3A5 in metabolism: involved in the metabolism
[3]; All (n = 69)
  AST increased (TEAE), incidence: 10.1%
  AST increased (TEAE), n patients: 7
  Abdominal pain (TEAE), incidence: 14.5%
  Abdominal pain (TEAE), n patients: 10
  Back pain (TEAE), incidence: 15.9%
  Back pain (TEAE), n patients: 11
  Blood creatinine increased (TEAE), incidence: 10.1%
  Blood creatinine increased (TEAE), n patients: 7
  Constipation (TEAE), incidence: 18.8%
  Constipation (TEAE), n patients: 13
  Cough (TEAE), incidence: 15.9%
  Cough (TEAE), n patients: 11
  Decreased appetite (TEAE), incidence: 49.3%
  Decreased appetite (TEAE), n patients: 34
  Dehydration (TEAE), incidence: 8.7%
  Dehydration (TEAE), n patients: 6
  Diarrhoea (TEAE), incidence: 56.5%
  Diarrhoea (TEAE), n patients: 39
  Dry mouth (TEAE), incidence: 18.8%
  Dry mouth (TEAE), n patients: 13
  Dysgeusia (TEAE), incidence: 27.5%
  Dysgeusia (TEAE), n patients: 19
  Edema (TEAE), incidence: 17.4%
  Edema (TEAE), n patients: 12
  Fatigue (TEAE), incidence: 55.1%
  Fatigue (TEAE), n patients: 38
  Hyperglycaemia (TEAE), incidence: 17.4%
  Hyperglycaemia (TEAE), n patients: 12
  Lung infection/ pneumonia (TEAE), incidence: 5.8%
  Lung infection/ pneumonia (TEAE), n patients: 4
  Nausea (TEAE), incidence: 56.5%
  Nausea (TEAE), n patients: 39
  Pyrexia (TEAE), incidence: 14.5%
  Pyrexia (TEAE), n patients: 10
  Rash (TEAE), incidence: 33.3%
  Rash (TEAE), n patients: 23
  Stomatitis (TEAE), incidence: 33.3%
  Stomatitis (TEAE), n patients: 23
  Vomiting (TEAE), incidence: 37.7%
  Vomiting (TEAE), n patients: 26
[3]; US and Japan phase I studies, oral once daily
  RP2D: 240 mg/day
[3]; all cohorts
  DS-7423-related ≥grade 3 TEAE: rare
  Grade of nausea, vomiting, and dysgeusia events: grade 1 or 2
Advanced solid tumours
  Patients with tumour shrinkage and durable disease control: 5
